From PubChem BioAssay (NCI)
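GI50 is the concentration that inhibits growth by half. TGI denotes the concentration required for complete inhibition of growth.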

How the values were obtained:
Assay in all cases: NCI anticancer screen, dose series, 384-well format
[1] = tested on: BT-549 breast
[2] = tested on: HCT-15 colon
[3] = tested on: SK-OV-3 ovarian
[4] = tested on: 786-0 renal
[5] = tested on: CCRF-CEM leukemia
[6] = tested on: MDA-MB-435 melanoma
[7] = tested on: NCI-H226 lung
[8] = tested on: IGROV1 ovarian
[9] = tested on: UACC-257 melanoma
[10] = tested on: SNB-75 CNS
[11] = tested on: PC-3 prostate
[12] = tested on: HOP-92 NSCLC
[13] = tested on: SF-268 CNS
[14] = tested on: MALME-3M melanoma
[15] = tested on: SK-MEL-5 melanoma
[16] = tested on: OVCAR-3 ovarian
[17] = tested on: LOX IMVI melanoma
[18] = tested on: CAKI-1 renal
[19] = tested on: HT29 colon
[20] = tested on: NCI/ADR-RES ovarian
[21] = tested on: OVCAR-5 ovarian
[22] = tested on: SW-620 colon
[23] = tested on: A549 NSCLC
[24] = tested on: SNB-19 CNS
[25] = tested on: NCI-H322M lung
[26] = tested on: SN12C renal
[27] = tested on: A498 renal
[28] = tested on: KM12 colon
[29] = tested on: ACHN renal
[30] = tested on: U251 glioblastoma
[31] = tested on: M14 melanoma
[32] = tested on: HOP-62 NSCLC
[33] = tested on: UACC-62 melanoma
[34] = tested on: T-47D breast
[35] = tested on: NCI-H460 NSCLC
[36] = tested on: MDA-MB-468 breast
[37] = tested on: OVCAR-8 ovarian
[38] = tested on: TK-10 renal
[39] = tested on: COLO 205 colon
[40] = tested on: HS 578T breast
[41] = tested on: UO-31 renal
[42] = tested on: HL-60(TB) leukemia
[43] = tested on: MCF7 breast
[44] = tested on: SF-539 CNS
[45] = tested on: K-562 leukemia
[46] = tested on: HCT-116 colon
[47] = tested on: SK-MEL-28 melanoma

O=c1[nH]nc2c3c(cccc13)NC(CN1Cc3ccccc3C1)=N2
GI50 [1]: 6.22 µM | TGI [1]: 39.7 µM | GI50 [2]: 8.44 µM | TGI [2]: > 100 µM | GI50 [3]: 3.49 µM | TGI [3]: > 62.2 µM | GI50 [4]: 5.12 µM | TGI [4]: > 67.4 µM | GI50 [5]: 3.91 µM | TGI [5]: 15.2 µM | GI50 [6]: 3.74 µM | TGI [6]: 15.6 µM | GI50 [7]: 3.21 µM | TGI [7]: 52 µM | GI50 [8]: 3.55 µM | TGI [8]: 70.6 µM | GI50 [9]: > 100 µM | TGI [9]: > 100 µM | GI50 [10]: 2.32 µM | TGI [10]: 18.9 µM | GI50 [11]: 4.32 µM | TGI [11]: 57.5 µM | GI50 [12]: 2.5 µM | TGI [12]: 16.9 µM | GI50 [13]: 4.68 µM | TGI [13]: 37.2 µM | GI50 [14]: 6 µM | TGI [14]: > 100 µM | GI50 [15]: 3.42 µM | TGI [15]: > 56.2 µM | GI50 [16]: 3.75 µM | TGI [16]: > 88.3 µM | GI50 [17]: 6.61 µM | TGI [17]: > 61.4 µM | GI50 [18]: 2.03 µM | TGI [18]: > 100 µM | GI50 [19]: 4.31 µM | TGI [19]: 26.3 µM | GI50 [20]: 9.41 µM | TGI [20]: > 100 µM | GI50 [21]: 3.89 µM | TGI [21]: 22.6 µM | GI50 [22]: 8.37 µM | TGI [22]: > 100 µM | GI50 [23]: 5.19 µM | TGI [23]: 67.5 µM | GI50 [24]: 48 µM | TGI [24]: > 100 µM | GI50 [25]: 5.1 µM | TGI [25]: > 45.7 µM | GI50 [26]: 4.09 µM | TGI [26]: > 39.4 µM | GI50 [27]: 3.21 µM | TGI [27]: 12.4 µM | GI50 [28]: 6.04 µM | TGI [28]: > 62.4 µM | GI50 [29]: 5.5 µM | TGI [29]: > 78.1 µM | GI50 [30]: 7.61 µM | TGI [30]: > 100 µM | GI50 [31]: 6.09 µM | TGI [31]: > 100 µM | GI50 [32]: 4.06 µM | TGI [32]: > 100 µM | GI50 [33]: 7.14 µM | TGI [33]: > 100 µM | GI50 [34]: 22.8 µM | TGI [34]: > 100 µM | GI50 [35]: 5.18 µM | TGI [35]: > 71.8 µM | GI50 [36]: 2.22 µM | TGI [36]: 9.99 µM | GI50 [37]: 5.38 µM | TGI [37]: > 100 µM | GI50 [38]: 2.7 µM | TGI [38]: 17.1 µM | GI50 [39]: 5.51 µM | TGI [39]: > 56.2 µM | GI50 [40]: 5.78 µM | TGI [40]: > 100 µM | GI50 [41]: 11.4 µM | TGI [41]: > 100 µM | GI50 [42]: 12.9 µM | TGI [42]: > 100 µM | GI50 [43]: 7.24 µM | TGI [43]: > 100 µM | GI50 [44]: 20.9 µM | TGI [44]: > 100 µM | GI50 [45]: 7.51 µM | TGI [45]: > 100 µM | GI50 [46]: 8.67 µM | TGI [46]: > 100 µM | GI50 [47]: 5.99 µM | TGI [47]: 27.6 µM
